Data reported in patent US20130267494A1, “1,4-OXAZEPANE DERIVATIVES” (priority 2010, published 2013).
Structures can show the parent of a compound that is named as a salt. Where two headings read alike, the source gives them in different places.

What was measured:
Assay type in all cases: cell-based
[1] = biological target: T1, human dopamine transporter (Homo sapiens, UniProt Q01959); assay: Inhibitory action on human dopamine transporter ([3H]-dopamine uptake in CHO cells); conditions: compound 1 μM, relative to inhibitory activity of 100 μM Nomifensine as 100%; for inhibition at 1 µM: CHO, read-out: inhibitory rate (%)
T1 construct: expressed in transfected cells
In short: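 CHO-K1 cells stably expressing human dopamine transporter, exposed to compound at 10 μM or 1 μM in HEPES-buffered saline with 0.5% BSA. [3H]-dopamine uptake measured over 60 min by scintillation counting. Activity expressed relative to 100 μM nomifensine as 100%.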

[2] = biological target: T2, human serotonin transporter (Homo sapiens, UniProt P31645); assay: Inhibitory action on human serotonin transporter ([3H]-5-hydroxytryptamine uptake in CHO cells); conditions: compound 1 μM, relative to inhibitory activity of 10 μM Paroxetine as 100%; for inhibition at 1 µM: CHO, read-out: inhibitory rate (%)
T2 construct: expressed in transfected cells
In short: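 CHO-K1 cells stably expressing human SERT, plated overnight, took up [3H]-5-HT (diluted to 200 nM before a 1:10 addition) for 20 min in HEPES-buffered saline with glucose and 0.5% BSA; radioactivity counted by scintillation. Compounds at 10 μM or 1 μM, activity expressed relative to 10 μM paroxetine set as 100%.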

[3] = biological target: T3, human norepinephrine transporter (Homo sapiens, UniProt P23975); assay: Inhibitory action on human norepinephrine transporter ([3H]-norepinephrine uptake in CHO cells); conditions: relative to inhibitory activity of 10 μM DMI as 100%; for inhibition at 1 µM: CHO
T3 construct: expressed in transfected cells
In short: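 Stably transfected CHO-K1 cells plated overnight, then given test compound and [3H]-norepinephrine (20 nM final, from 200 nM) in HEPES-buffered saline with 0.5% BSA for 45 min. After PBS washes, retained radioactivity counted by scintillation. Inhibition at 10 μM or 1 μM compound expressed relative to 10 μM DMI as 100%.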

[4] = read-out: inhibitory rate (%), compound 1 μM
[5] = compound 1 μM, read-out: inhibitory rate (%)

T2 sequence (P31645 whole entry): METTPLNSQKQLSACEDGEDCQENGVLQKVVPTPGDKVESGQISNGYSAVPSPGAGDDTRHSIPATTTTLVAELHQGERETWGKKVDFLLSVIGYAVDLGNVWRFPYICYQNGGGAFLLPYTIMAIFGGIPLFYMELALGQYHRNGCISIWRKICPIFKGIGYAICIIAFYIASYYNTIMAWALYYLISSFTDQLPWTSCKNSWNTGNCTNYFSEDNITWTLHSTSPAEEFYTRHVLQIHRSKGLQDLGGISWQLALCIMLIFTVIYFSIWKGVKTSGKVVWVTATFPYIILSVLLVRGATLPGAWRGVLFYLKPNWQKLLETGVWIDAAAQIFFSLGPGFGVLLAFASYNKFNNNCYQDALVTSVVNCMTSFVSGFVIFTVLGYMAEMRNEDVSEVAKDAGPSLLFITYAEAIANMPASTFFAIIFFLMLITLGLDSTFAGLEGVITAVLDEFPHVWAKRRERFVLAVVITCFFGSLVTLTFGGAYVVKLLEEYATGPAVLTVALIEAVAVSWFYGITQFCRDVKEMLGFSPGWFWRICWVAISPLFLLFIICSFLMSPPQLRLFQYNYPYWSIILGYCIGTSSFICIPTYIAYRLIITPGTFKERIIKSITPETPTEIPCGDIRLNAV
T3 sequence (P23975 whole entry): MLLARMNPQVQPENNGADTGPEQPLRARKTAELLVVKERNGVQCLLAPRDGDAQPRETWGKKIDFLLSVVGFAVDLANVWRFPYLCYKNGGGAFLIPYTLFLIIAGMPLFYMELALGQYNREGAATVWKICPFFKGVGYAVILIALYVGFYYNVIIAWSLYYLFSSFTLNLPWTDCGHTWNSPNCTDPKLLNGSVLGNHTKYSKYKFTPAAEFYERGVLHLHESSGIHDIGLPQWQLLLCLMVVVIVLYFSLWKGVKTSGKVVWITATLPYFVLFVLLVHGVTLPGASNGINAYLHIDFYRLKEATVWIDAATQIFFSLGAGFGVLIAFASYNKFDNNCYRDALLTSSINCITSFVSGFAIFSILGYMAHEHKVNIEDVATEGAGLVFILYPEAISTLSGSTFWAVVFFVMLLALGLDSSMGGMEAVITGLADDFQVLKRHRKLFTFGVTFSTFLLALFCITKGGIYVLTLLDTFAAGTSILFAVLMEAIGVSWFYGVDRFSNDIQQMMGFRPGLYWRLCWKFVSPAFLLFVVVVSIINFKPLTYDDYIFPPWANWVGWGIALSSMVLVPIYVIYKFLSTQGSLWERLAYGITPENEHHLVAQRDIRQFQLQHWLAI
T1 sequence (Q01959 whole entry): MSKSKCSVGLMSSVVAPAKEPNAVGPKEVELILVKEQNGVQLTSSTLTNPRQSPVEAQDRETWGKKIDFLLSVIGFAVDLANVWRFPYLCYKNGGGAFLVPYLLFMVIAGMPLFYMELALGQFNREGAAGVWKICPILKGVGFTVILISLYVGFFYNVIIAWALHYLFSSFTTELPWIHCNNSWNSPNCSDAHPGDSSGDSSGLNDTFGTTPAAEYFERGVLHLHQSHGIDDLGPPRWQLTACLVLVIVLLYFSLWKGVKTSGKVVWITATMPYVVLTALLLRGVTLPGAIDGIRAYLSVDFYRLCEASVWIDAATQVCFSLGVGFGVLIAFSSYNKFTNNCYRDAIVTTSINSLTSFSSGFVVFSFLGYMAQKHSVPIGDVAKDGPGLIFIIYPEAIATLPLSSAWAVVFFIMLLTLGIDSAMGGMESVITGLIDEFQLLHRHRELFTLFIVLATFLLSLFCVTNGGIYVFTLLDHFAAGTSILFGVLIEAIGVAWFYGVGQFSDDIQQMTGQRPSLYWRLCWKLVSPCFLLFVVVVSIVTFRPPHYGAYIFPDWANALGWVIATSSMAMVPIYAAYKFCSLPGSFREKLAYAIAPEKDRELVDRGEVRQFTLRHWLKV

Row | SMILES | inhibitory rate (%) [1] [%] | inhibitory rate (%) [2] [%] | inhibitory rate (%) ([3]; compound 1 μM) | inhibition at 1 µM [1] [%] | inhibition at 1 µM [2] [%] | inhibition at 1 µM [3, 4] [%] | inhibition at 1 µM [3, 5] [%]
1 | OCC1CNCCOC1c1ccc(Cl)c(Cl)c1 (stereo not drawn) [Example 49, [(6R*,7R*)-7-(3,4-dichlorophenyl)-1,4-oxazepan-6-yl]methanol monohydrochloride (retention time long)] | 41 | 87 | 98 | – | – | – | –
2 | OC[C@@H]1CNCCO[C@H]1c1ccc(Cl)c(Cl)c1 [Example 72, [(6S,7R)-7-(3,4-dichlorophenyl)-1,4-oxazepan-6-yl]methanol monohydrochloride] | – | – | – | 41 | 90 | 95 | –
3 | OC[C@H]1CNCCO[C@@H]1c1ccc(Cl)c(Cl)c1 [Example 73, [(6R,7S)-7-(3,4-dichlorophenyl)-1,4-oxazepan-6-yl]methanol monohydrochloride] | – | – | – | 64 | 97 | 98 | –
4 | O=c1[nH]c(-c2ccc(OC[C@@H]3CNCCO[C@H]3c3ccc(Cl)c(Cl)c3)nc2)no1 [Example 87, 3-(6-{[(6S,7R)-7-(3,4-dichlorophenyl)-1,4-oxazepan-6-yl]methoxy}pyridin-3-yl)-1,2,4-oxadiazol-5(4H)-one monohydrochloride] | – | – | – | 20 | 96 | – | 108
5 | CS(=O)(=O)C[C@@H]1CNCCO[C@H]1c1ccc(Cl)c(Cl)c1 [Example 92, (6R,7R)-7-(3,4-dichlorophenyl)-6-[(methylsulfonyl)methyl]-1,4-oxazepane monohydrochloride] | – | – | – | 86 | 97 | – | 96
6 | CS(=O)(=O)C[C@H]1CNCCO[C@@H]1c1ccc(Cl)c(Cl)c1 [Example 93, (6S,7S)-7-(3,4-dichlorophenyl)-6-[(methylsulfonyl)methyl]-1,4-oxazepane monohydrochloride] | – | – | – | 96 | 97 | – | 96
7 | CC(=O)N(C)C[C@@H]1CNCCO[C@H]1c1ccc(Cl)c(Cl)c1 [Example 99, N-{[(6S,7R)-7-(3,4-dichlorophenyl)-1,4-oxazepan-6-yl]methyl}-N-methylacetamide monohydrochloride] | – | – | – | 94 | 99 | – | 98
8 | CS(=O)(=O)CC(=O)NC[C@@H]1CNCCO[C@H]1c1ccc(Cl)c(Cl)c1 [Example 114, N-{[(6S,7R)-7-(3,4-dichlorophenyl)-1,4-oxazepan-6-yl]methyl}-2-(methylsulfonyl)acetamide monohydrochloride] | – | – | – | 59 | 94 | – | 99
9 | CS(=O)(=O)CC(=O)NC[C@H]1CNCCO[C@@H]1c1ccc(Cl)c(Cl)c1 [Example 115, N-{[(6R,7S)-7-(3,4-dichlorophenyl)-1,4-oxazepan-6-yl]methyl}-2-(methylsulfonyl)acetamide monohydrochloride] | – | – | – | 66 | 99 | – | 98
10 | O=C(NC[C@@H]1CNCCO[C@H]1c1ccc(Cl)c(Cl)c1)c1ccccc1 [Example 126, N-{[(6S,7R)-7-(3,4-dichlorophenyl)-1,4-oxazepan-6-yl]methyl}benzamide monohydrochloride] | – | – | – | 27 | 97 | – | 103
11 | O=C(NC[C@@H]1CNCCO[C@H]1c1ccc(Cl)c(Cl)c1)c1cccc(-c2noc(=O)[nH]2)c1 [Example 142, N-{[(6S,7R)-7-(3,4-dichlorophenyl)-1,4-oxazepan-6-yl]methyl}-3-(5-oxo-4,5-dihydro-1,2,4-oxadiazol-3-yl)benzamide monohydrochloride] | – | – | – | 4 | 95 | – | 100
12 | O=C(NC[C@@H]1CNCCO[C@H]1c1ccc(Cl)c(Cl)c1)c1cc(-c2noc(=O)[nH]2)ccn1 [Example 146, N-{[(6S,7R)-7-(3,4-dichlorophenyl)-1,4-oxazepan-6-yl]methyl}-4-(5-oxo-4,5-dihydro-1,2,4-oxadiazol-3-yl)pyridine-2-carboxamide monohydrochloride] | – | – | – | 47 | 100 | – | 101
13 | NC(=O)NC[C@@H]1CNCCO[C@H]1c1ccc(Cl)c(Cl)c1 [Example 152, 1-{[(6S,7R)-7-(3,4-dichlorophenyl)-1,4-oxazepan-6-yl]methyl}urea monofumarate] | – | – | – | 59 | 89 | 95 | –
14 | NC(=O)NC[C@H]1CNCCO[C@@H]1c1ccc(Cl)c(Cl)c1 [Example 153, 1-{[(6R,7S)-7-(3,4-dichlorophenyl)-1,4-oxazepan-6-yl]methyl}urea monofumarate] | – | – | – | 49 | 93 | 95 | –
15 | CNC(=O)N(CCO)C[C@@H]1CNCCO[C@H]1c1ccc(Cl)c(Cl)c1 [Example 160, 1-{[(6S,7R)-7-(3,4-dichlorophenyl)-1,4-oxazepan-6-yl]methyl}-1-(2-hydroxyethyl)-3-methylurea monohydrochloride] | – | – | – | 99 | 99 | – | 101
16 | O=c1nc(-c2ccccc2S(=O)(=O)C[C@@H]2CNCCO[C@H]2c2ccc(Cl)c(Cl)c2)[nH]o1 [Example 167, 3-[2-({[(6R,7R)-7-(3,4-dichlorophenyl)-1,4-oxazepan-6-yl]methyl}sulfonyl)phenyl]-1,2,4-oxadiazol-5(2H)-one monohydrochloride] | – | – | – | 88 | 93 | – | 103
17 | O=C(O)c1cccnc1NC[C@@H]1CNCCO[C@H]1c1ccc(Cl)c(Cl)c1 [Example 176, 2-({[(6S,7R)-7-(3,4-dichlorophenyl)-1,4-oxazepan-6-yl]methyl}amino)pyridine-3-carboxylic acid monohydrochloride] | – | – | – | 20 | 80 | – | 101
18 | O=C(O)c1ccnn1C[C@@H]1CNCCO[C@H]1c1ccc(Cl)c(Cl)c1 [Example 181, 1-{[(6S,7R)-7-(3,4-dichlorophenyl)-1,4-oxazepan-6-yl]methyl}-1H-pyraole-5-carboxylic acid monohydrochloride] | – | – | – | 39 | 87 | – | 100
19 | Cc1cc(C(=O)O)nn1C[C@@H]1CNCCO[C@H]1c1ccc(Cl)c(Cl)c1 [Example 187, 1-{[(6S,7R)-7-(3,4-dichlorophenyl)-1,4-oxazepan-6-yl]methyl}-5-methyl-1H-pyrazole-3-carboxylic acid monohydrochloride] | – | – | – | 53 | 86 | – | 101
20 | O=c1[nH]c(-c2csc(C[C@@H]3CNCCO[C@H]3c3ccc(Cl)c(Cl)c3)n2)no1 [Example 199, 3-(2-{[(6R,7R)-7-(3,4-dichlorophenyl)-1,4-oxazepan-6-yl]methyl}-1,3-thiazol-4-yl)-1,2,4-oxadiazol-5(4H)-one monohydrochloride] | – | – | – | 66 | 100 | – | 99
21 | O=c1[nH]c(-c2ccnn(C[C@@H]3CNCCO[C@H]3c3ccc(Cl)c(Cl)c3)c2=O)no1 [Example 209, 2-{[(6S,7R)-7-(3,4-dichlorophenyl)-1,4-oxazepan-6-yl]methyl}-4-(5-oxo-4,5-dihydro-1,2,4-oxadiazol-3-yl)pyridazin-3(2H)-one monohydrochloride] | – | – | – | 71 | 97 | 101 | –
22 | OCCC[C@@H]1CNCCO[C@H]1c1ccc(Cl)c(Cl)c1 [Example 212, 3-[(6R,7R)-7-(3,4-dichlorophenyl)-1,4-oxazepan-6-yl]propan-1-ol monohydrochloride] | – | – | – | 94 | 98 | – | 103
23 | CC(=O)[C@@H]1CNCCO[C@H]1c1ccc(Cl)c(Cl)c1 [Example 216, 1-[(6R,7R)-7-(3,4-dichlorophenyl)-1,4-oxazepan-6-yl]ethanone monohydrochloride] | – | – | – | 3 | 42 | – | 94
24 | CC(=O)N[C@H]1CNCCO[C@@H]1c1ccc(Cl)c(Cl)c1 [Example 240, N-[(6S,7R)-7-(3,4-dichlorophenyl)-1,4-oxazepan-6-yl]acetamide monohydrochloride] | – | – | – | 60 | 94 | – | 105
25 | NC(=O)N[C@@H]1CNCCO[C@H]1c1ccc(Cl)c(Cl)c1 [Example 262, 1-[(6R,7S)-7-(3,4-dichlorophenyl)-1,4-oxazepan-6-yl]urea monohydrochloride] | – | – | – | 52 | 71 | – | 98
26 | CS(=O)(=O)N[C@@H]1CNCCO[C@H]1c1ccc(Cl)c(Cl)c1 [Example 265, N-[(6R,7S)-7-(3,4-dichlorophenyl)-1,4-oxazepan-6-yl]methanesulfonamide monohydrochloride] | – | – | – | 72 | 79 | – | 102
